Data from patent US10919941B2, “Functional lipid constructs” (KODE BIOTECH LIMITED, priority 2007, dated 2021).
No end group written: not given here.

Assays:
Set-up in all cases: key: 0 or ‘−’ no agglutination; 0 or ‘−’ no agglutination; 1+ or 3=very weak agglutination; 1+ or 3=very weak agglutination; 2+ or 5=weak agglutination; 2+ or 5=weak agglutination; 3+ or 8=moderate strong agglutination; 3+ or 8=moderate strong agglutination; 4+ or 10/12=strong agglutination; 4+ or 10/12=strong agglutination; 4+ or 10/12=strong agglutination
[1] = test system: natural Mi III antibody reactive human serums; test: Positive serum reactivity of modified RBCs in the field; assay type: cell-based; conditions: 22 at 50, 17 and 24 at 200 μg/ml; 3 h RT then 18 h 4° C.
Protocol: The suspensions are either: • 1. incubated for 2 hours at 37° C. before being washed and suspended in a cell medium for serological analysis at a concentration of 0.8 to 3% (Method 1); or • 2. incubated for 3 to 4 hours at room temperature (circa 25° C.) followed by 18 hours at 4° C. before being washed and suspended in a cell medium for serological analysis at a concentration of 0.8 to 3% (Method 2).
Serological reactions are graded or scored by either of two established systems (0 or ‘−’ no agglutination, 1+ or 3=very weak agglutination, 2+ or 5=weak agglutination, 3+ or 8=moderate strong agglutination, 4+ or 10/12=strong agglutination)

[2] = test system: TAP1 serum (Taiwan Miltenberger antibody positive sample); test: Anti-MUT serum (TAP1) reactivity of modified RBCs (saline and AHG); assay type: cell-based, human
[3] = test system: Miltenberger antibody positive sera; test: BioVue AHG card column agglutination serology of modified red blood cells; assay type: cell-based, human
[4] = test system: sera reactive with modified RBCs; test: Neutralisation of reactive sera with free peptide, retested against modified RBCs (BioVue); assay type: cell-based, human; conditions: cells modified with the peptide-lipid construct M22; AHG test in BioVue
Description: Optionally, where F is a peptide, the method includes the preliminary step of: • Adding an amount of the peptide to the sample of the serum; where the amount of the peptide is sufficient to neutralize non-specific agglutination or confirm specificity of the reactive antibody.

M22: DOPE peptide-lipid construct: MUTK peptide SQTNDKHKRD, leader c, spacer CMG(2) (SQTNDKHKRDC; also: DOPE peptide-lipid construct via leader Cys, spacer CMG(2))
score vs Mi III reactive serum 488-6 [1]: 10
score vs Mi III reactive serum 589-6 [1]: 0
score vs Mi III reactive serum 621-3 [1]: 5
score vs Mi III reactive serum 912485657-9 [1]: 0
score vs Mi III reactive serum 914146821-8 [1]: 0
score vs Mi III reactive serum 922390844-5 [1]: 0
score vs Mi III reactive serum 926190919-0 [1]: 0
score vs Mi III reactive serum 926555294-1 [1]: 0
score vs Mi III reactive serum 927175131-4 [1]: 0
score vs Mi III reactive serum 927299700-1 [1]: 0
score vs Mi III reactive serum 927516053-2 [1]: 0
score vs Mi III reactive serum 927619701-8 [1]: 0
score vs Mi III reactive serum 932360876-4 [1]: 0
score vs Mi III reactive serum 932467774-5 [1]: 0
score vs Mi III reactive serum 932809044-1 [1]: 0
score vs Mi III reactive serum 942223755-1 [1]: 0
score vs Mi III reactive serum 942404708-4 (row interpreted Mur) [1]: 0
score vs Mi III reactive serum 942404708-4 (row interpreted other) [1]: 0
score vs Mi III reactive serum 942421413-0 [1]: 0
score vs Mi III reactive serum 942423002-4 [1]: 0
score vs Mi III reactive serum 942433813-3 [1]: 0
score vs Mi III reactive serum 942433855-3 [1]: 0
score vs Mi III reactive serum 942442720-2 [1]: 0
score vs Mi III reactive serum 942448627-8 [1]: 0
score vs Mi III reactive serum 942753165-4 [1]: 0
score vs Mi III reactive serum 942762589-1 [1]: 0
score vs Mi III reactive serum 9322338631 [1]: 0
score vs Mi III reactive serum 9325490091 [1]: 5
score vs Mi III reactive serum 9327986660 [1]: 8
score vs Mi III reactive serum 9328118428 [1]: 0
score vs Mi III reactive serum 9328154853 [1]: 0
score vs Mi III reactive serum 9328791834 [1]: 5
score vs Mi III reactive serum 9424248012 [1]: 0
score vs Mi III reactive serum 9424292604 [1]: 0
score vs Mi III reactive serum 9424396133 [1]: 0
score vs Mi III reactive serum 9425256505 [1]: 0
score vs Mi III reactive serum 9427455417 [1]: 0
score vs Mi III reactive serum 9427613497 [1]: 0
score vs Mi III reactive serum 9427615156 [1]: 0
score vs Mi III reactive serum S-3 [1]: 0
TAP 1 Serum, AHG score ([2]; construct 10 μg/ml): 5
TAP 1 Serum, Saline score ([2]; construct 10 μg/ml): 0
TAP 1 Serum, AHG score ([2]; construct 20 μg/ml): 8
TAP 1 Serum, Saline score ([2]; construct 20 μg/ml): 0
TAP 1 Serum, AHG score ([2]; construct 50 μg/ml): 8
TAP 1 Serum, Saline score ([2]; construct 50 μg/ml): 0
Reactivity with anti-MUT serum TAP1 ([2]; construct 50 μg/ml (2 hours, 37° C.)): 8
TAP 1 Serum, AHG score ([2]; construct 100 μg/ml): 8
TAP 1 Serum, Saline score ([2]; construct 100 μg/ml): 0
TAP 1 Serum, AHG score ([2]; construct 200 μg/ml): 10
TAP 1 Serum, Saline score ([2]; construct 200 μg/ml): 0
BioVue score vs TAP1 ([3]; construct 50 μg/ml): 8
BioVue score vs positive sample 2 T217 (T) ([3]; construct 50 μg/ml): 0
BioVue score vs positive sample 3 T165 (Mur) ([3]; construct 50 μg/ml): 0
BioVue score vs positive sample 4 T7202 (M) ([3]; construct 50 μg/ml): 0
BioVue score vs positive sample 8 T5896 (M + K + Mur) ([3]; construct 50 μg/ml): 0
TAP 2 Serum BioVue AHG score ([3]; construct 100 μg/ml): 0
Pre-neutralisation serology, PAC74 [4]: 8
Pre-neutralisation serology, TAP1 [4]: 8
